For test [1], the system named is ventricular effective refractory period. Briefly: Effects on the effective refractory period (ventricular), anesthetized beagles with vagal nerve stimulation. It counts as in vivo. To be noted: 0.3 mg/kg intravenously, from 5 min after administration, after minus before administration. The protocol: (§1) Effects on the Effective Refractory Period
(§2) Beagles were anesthetized with pentobarbital sodium and, under artificially ventilated condition, thoracotomy was conducted along the median and the pericardium was cut open to expose the heart. ECG was recorded using bipolar electrodes attached to the surface of the right atrial free wall, right atrial auricle, and right ventricular free wall. The vagal nerves were stimulated using an electric stimulation device via Nichrome wires inserted into the bilateral vagal nerves in the neck. The conditions for electric stimulation to the vagal nerves were set such that the RR intervals on ECG were prolonged by about 100 msec compared with those before the stimulation was started.
(§3) Electric current twice as strong as the threshold was used for the electric stimulation to the heart, and premature stimulation S2 was applied after giving 10 serial S1 stimulations at the basic stimulation cyclelength. […]
(§4) For evaluation of drug effects, the atrial and ventricular effective refractory periods were determined before drug administration, then each compound was administrated intravenously at the dose of 0.3 mg/kg, and the atrial and ventricular effective refractory periods were determined from 5 min after the administration. […]

Test [2] concerns atrial effective refractory period. Briefly: Effects on the effective refractory period (atrial), anesthetized beagles with vagal nerve stimulation. It counts as in vivo. The conditions noted are these: 0.3 mg/kg intravenously, from 5 min after administration, after minus before administration. The protocol:
as §1, §2, §3, §4

Turning to `CCCCCN[C@H]1c2cc(NC(C)=O)c([N+](=O)[O-])cc2OC(C)(C)[C@@H]1O` (relative stereo) [Synthesis Example 1, (3R*,4S*)-6-acetylamino-3,4-dihydro-2,2-dimethyl-7-nitro-4-n-pentylamino-2H-1-benzopyran-3-ol], the “prolongation time in effective refractory period (msec) ventricle” value in test [1] was 5 ms. For the same compound, the “prolongation time in effective refractory period (msec) Atrium” value in test [2] amounted to 40 ms.

On to `CCCCCN[C@H]1c2cc(N)c([N+](=O)[O-])cc2OC(C)(C)[C@@H]1O` (relative stereo) [Synthesis Example 9, Trans-6-amino-3,4-dihydro-2,2-dimethyl-7-nitro-4-n-pentylamino-2H-1-benzopyran-3-ol], for which, in test [1], the “prolongation time in effective refractory period (msec) ventricle” value came to 3 ms. For the same compound, in test [2], the “prolongation time in effective refractory period (msec) Atrium” value is 27 ms.

Values taken from patent publication US20040068002A1, “4-aminobenzopyran derivatives” (priority 2001, published 2004).
